Columns and labels:
[1] = system: vascular endothelial growth factor (VEGF); assay: Brain VEGF gene expression in mice after intravenous injection; assay type: in vivo, Swiss Webster mice; conditions: 20 mg/kg i.v., four hours, quantitative real time PCR normalized to 18s RNA
Method: The effect of compounds of the present invention on regulation of cytoprotective and neuroprotective gene expression in brain was evaluated. In one series of experiments, male Swiss Webster mice were administered by intravenous injection various compounds of the present invention. Animals treated by intravenous injection received a 6 ml/kg volume of either 5% Dextrose with an equimolar amount of Meglumine (vehicle control) or 20 mg/kg of a compound of the present invention in 5% dextrose with an equimolar amount of Meglumine Animals were euthanized four hours later and their brains placed in RNAlater (Ambion, Austin Tex.) for subsequent analysis. Tissues were homogenized in Trizol (Invitrogen, Carlsbad Calif.) using 5-mm steel beads in a Mixer Mill (Qiagen, Valencia Calif.). RNA was isolated from the Trizol solution and then further purified using RNeasy kit (Qiagen). cDNA was prepared from […] total RNA using Omniscript reverse transcriptase (Qiagen) and random hexamers. Quantitative real time PCR was performed in a 7900HT instrument (Applied Biosystems, Foster City Calif.) using TaqMan Assays-on-Demand (Applied Biosystems). Gene expression levels were normalized to that of 18s RNA.

[2] = system: Wistar rats, transient MCA occlusion; assay: Grip strength test in rat tMCAO; assay type: in vivo; conditions: 60 mg/kg p.o. at 1.5 and 24 hours after reperfusion then 30 mg/kg every other day, days 7, 14, 21, and 28, vs non-treated control, FIG. 5
Excerpt: (§1) Rats subjected to cerebral ischemia following transient MCA occlusion have deficits in sensorimotor and neuromuscular function which can be assessed using various behavioral tests. (See, e.g., Aronowski et al. J Cereb Blood Flow Metab (1996) 16:705-713; and Colbourne et al. J Cereb Blood Flow Metab (2000) 20:1702-1708.) The effect of compounds of the present invention on various functional impairments associated with stroke was examined using an animal model of ischemic stroke. In this series of experiments, male Wistar rats (300 g) underwent behavioral testing after transient MCA occlusion. One day prior to MCAO surgery, the rats were trained to the grip strength meter and subjected to tactile adhesion testing. Following their training, rats were subjected to transient occlusion of the MCA in the same manner described in Example 10 above. Compound F (60 mg/kg, p.o.) was administered by oral gavage at 1.5 hours and 24 hours after reperfusion and then every other day (with a dose of 30 mk/kg, p.o.) for 28 days. […]
Grip strength was used to assess neuromuscular function. Rat grip strength was determined using a standard rodent grip strength meter (Columbus Instruments, Columbus Ohio). […] Grip strength was assessed with a gentle consistent pull in the caudal direction. The digital reading on the meter was recorded and the mean of three trials reported. […]

[3] = system: Wistar rats, transient MCA occlusion; assay: Tactile adhesion test in rat tMCAO; assay type: in vivo; conditions: 60 mg/kg p.o. at 1.5 and 24 hours after reperfusion then 30 mg/kg every other day, day 7, vs non-treated control, FIG. 4
Excerpt: as §1
A tactile adhesion test was used to measure sensorimotor deficits and function. […] The latency (i.e. time required for the animal to remove each stimulus from the forelimbs) was recorded for ipsilateral (right) and contralateral (left) forelimbs separately. Three trials separated by 5 minutes were carried out for each rat and mean latency values in seconds (sec) were recorded.

COc1ccc(Oc2ccc3c(O)c(C(=O)NCC(=O)O)ncc3c2)cc1 [Compound F, {[4-Hydroxy-7-(4-methoxy-phenoxy)-isoquinoline-3-carbonyl]-amino}-acetic acid]
VEGF gene expression in brain [1]: 1.5
grip strength [2]: significantly improved
latency in the tactile adhesion test [3]: significantly improved

Source: patent publication US9775902B2, “Compounds and methods for treatment of stroke” (FIBROGEN, INC, priority 2006, dated 2017)
